According to patent publication US20050159444A1, “Bicyclic unsaturated tertiary amine compounds” (SANKYO COMPANY, LIMITED, priority 2002, published 2005):
pIC50: −log10 of the molar value.

What follows are compounds tested on TNFα production (assay: Inhibition of the production of TNFα in vitro in human whole blood). Settings: lipopolysaccharide 10 μg/ml, 6 hours at 37° C., ELISA of plasma, read-out: Inhibitory Effect on TNFα Production (in vitro) IC50.
Assay type: cell-based
Procedure: Inhibition of the Production of the Cytokines IL-1β and TNFα In Vitro in Human Whole Blood
This test was performed according to the method of Hartman, et al. [D. A. Hartman, S. J. Ochalski and R. P. Carlson; The effects of anti-inflammatory and antiallergic drugs on cytokine release after stimulation of human whole blood by lipopolysaccharide and zymosan A: Inflamm. Res., 44, 269 (1995)].
Peripheral blood samples were collected in the presence of heparin from healthy adult volunteers. 1000 μl of whole blood was added to an Eppendorf tube to which 2 μl of a dimethyl sulfoxide solution of the test compound had been previously added, after which 10 μl of lipopolysaccharide (E. coli O26: B6 origin, Difco) was added as a stimulant (final concentration of said lipopolysaccharide: 10 μg/ml). This was thoroughly mixed and then incubated for 6 hours at 37° C. in the presence of 5% CO2. At the end of the incubation, the mixture was cooled to 4° C. to stop the reaction, followed immediately by centrifuging for 5 minutes at 14,000 rpm to separate and collect the supernatant plasma. The IL-1β and TNFα produced and released into the plasma were measured using a commercially available enzyme immunoassay (ELISA) kits [Cayman and Genzyme]. The inhibitory effect [IC50 (μM)] on the production of cytokines was determined by the method of least squares from the amounts of the cytokines produced in the presence and absence of the test compound.

| Structure (SMILES) | pIC50 |
| --- | --- |
| Fc1ccc(-c2[nH]cc(C3=C[C@@H]4C[C@H](c5ccc(F)cc5)CN4CC3)c2-c2ccncc2)cc1 [Example 3, 2-(4-Fluorophenyl)-4-[(2R,8aS)-2-(4-fluorophenyl)-1,2,3,5,6,8a-hexahydroindolizin-7-yl]-3-(pyridin-4-yl)-1H-pyrrole] | 8.29 |
| COc1ccc([C@@H]2C[C@H]3C=C(c4c[nH]c(-c5ccc(F)cc5)c4-c4ccncc4)CCN3C2)cc1 [Example 16, 2-(4-Fluorophenyl)-4-[(2S,8aS)-2-(4-methoxyphenyl)-1,2,3,5,6,8a-hexahydroindolizin-7-yl]-3-(pyridin-4-yl)-1H-pyrrole] | 8.27 |
| Cc1ccc([C@H]2C[C@H]3C=C(c4c[nH]c(-c5ccc(F)cc5)c4-c4ccncc4)CCN3C2)cc1 [Example 4, 2-(4-Fluorophenyl)-4-[(2R,8aS)-2-(4-methylphenyl)-1,2,3,5,6,8a-hexahydroindolizin-7-yl]-3-(pyridin-4-yl)-1H-pyrrole] | 8.11 |
| Cc1ccc([C@@H]2C[C@H]3C=C(c4c[nH]c(-c5ccc(F)c(F)c5)c4-c4ccncc4)CCN3C2)cc1 [Example 12, 2-(3,4-Difluorophenyl)-4-[(2S,8aS)-2-(4-methylphenyl)-1,2,3,5,6,8a-hexahydroindolizin-7-yl]-3-(pyridin-4-yl)-1H-pyrrole] | 8.26 |
| Clc1cccc(-c2[nH]cc(C3=C[C@@H]4C[C@@H](c5ccccc5)CN4CC3)c2-c2ccncc2)c1 [Example 10, 2-(3-Chlorophenyl)-4-[(2S,8aS)-2-phenyl-1,2,3,5,6,8a-hexahydroindolizin-7-yl]-3-(pyridin-4-yl)-1H-pyrrole] | 8.14 |
| CCC[C@H]1C[C@H]2C=C(c3n[nH]c(-c4ccc(F)cc4)c3-c3ccncc3)CCN2C1 [Example 6, 5-(4-Fluorophenyl)-3-[(2S,8aS)-2-propyl-1,2,3,5,6,8a-hexahydroindolizin-7-yl]-4-(pyridin-4-yl)-pyrazole] | 8.20 |
| Fc1ccc(-c2[nH]cc(C3=C[C@@H]4C[C@@H](c5ccccc5)CN4CC3)c2-c2ccncc2)cc1Cl [Example 46, 2-(3-Chloro-4-fluorophenyl)-4-[(2S,8aS)-2-phenyl-1,2,3,5,6,8a-hexahydroindolizin-7-yl]-3-(pyridin-4-yl)-1H-pyrrole] | 8.68 |

These compounds were tested on TNFα production (assay: Inhibition of the production of TNFα in vivo (lipopolysaccharide-injected mice)). Settings: Mus musculus, oral, 30 minutes before lipopolysaccharide injection, plasma TNFα 1 hour after LPS, Balb/c mice, average vs control group, read-out: Inhibition Rate (%) of TNFα Production (in vivo).
Procedure: Inhibition of the Production of TNFα In Vivo
This test was performed according to the method of Ochalaki et al. [S. J. Ochalaki, D. A. Hartman, M. T. Belfast, T. L. Walter, K. B. Glaser and R. P. Carlson; Inhibition of endotoxin-induced hypothermia and serum TNFα levels in CD-1 mice by various pharmacological agents: Agents Actions 39, C52-C54 (1998)].
The production of TNFα was induced in mice by intravenous injection of lipopolysaccharide (E. coli O26: B6 origin, Difco) which was prepared to a concentration of 0.045 mg/ml using physiological saline. The saline preparation of lipopolysaccharide was administered at the rate of 10 ml/1 kg of body weight into the caudal vein of Balb/c mice (males, age 5-7 weeks, body weight: approx. 22 g, Japan Charles River) which had been fasted overnight starting the day before the experiment. One hour after administration, the mice were laparotomized under ether anaesthesia and blood was collected from the abdominal vena cava. Blood collection was performed using a 1 ml volume disposable syringe equipped with a 23G needle which had been moistened with heparin on the inside wall. Following blood collection, the blood was immediately transferred to a 1.5 ml volume Eppendorf tube and centrifuged at 4° C. and 14,000 rpm to separate the plasma. This plasma was then stored at −20° C. until measurement of TNFα.
The measurement of the amount of TNFα was performed with a enzyme immunoassay (ELISA) kit (Mouse TNFα ELISA KIT, Genzyme).
To determine the inhibitory activity of the test compounds, each test compound was suspended in 0.5% tragacanth solution ad then administered orally to the mice at a rate of 10 ml/1 kg of body weight 30 minutes before injection of the lipopolysaccharide, and the average inhibition rates were calculated versus a control group.

| Structure (SMILES) | inhibition in vivo at 5 mg/kg [%] |
| --- | --- |
| COc1ccc([C@@H]2C[C@H]3C=C(c4c[nH]c(-c5ccc(F)cc5)c4-c4ccncc4)CCN3C2)cc1 [Example 16, 2-(4-Fluorophenyl)-4-[(2S,8aS)-2-(4-methoxyphenyl)-1,2,3,5,6,8a-hexahydroindolizin-7-yl]-3-(pyridin-4-yl)-1H-pyrrole] | 90 |
| Fc1ccc(-c2[nH]cc(C3=C[C@@H]4C[C@@H](c5ccccc5)CN4CC3)c2-c2ccncc2)cc1F [Example 8, 2-(3,4-Difluorophenyl)-4-[(2S,8aS)-2-phenyl-1,2,3,5,6,8a-hexahydroindolizin-7-yl]-3-(pyridin-4-yl)-1H-pyrrole] | 91 |
| COc1cccc([C@@H]2C[C@H]3C=C(c4c[nH]c(-c5ccc(F)c(F)c5)c4-c4ccncc4)CCN3C2)c1 [Example 31, 2-(3,4-Difluorophenyl)-4-[(2S,8aS)-2-(3-methoxyphenyl)-1,2,3,5,6,8a-hexahydroindolizin-7-yl]-3-(pyridin-4-yl)-1H-pyrrole] | 92 |
| COc1ccc([C@@H]2C[C@H]3C=C(c4c[nH]c(-c5cccc(Cl)c5)c4-c4ccncc4)CCN3C2)cc1 [Example 23, 2-(3-Chlorophenyl)-4-[(2S,8aS)-2-(4-methoxyphenyl)-1,2,3,5,6,8a-hexahydroindolizin-7-yl]-3-(pyridin-4-yl)-1H-pyrrole] | 90 |
| C1=C(c2c[nH]c(-c3ccccc3)c2-c2ccncc2)CCN2C[C@H](c3ccccc3)C[C@@H]12 [Example 25, 2-Phenyl-4-[(2S,8aS)-2-phenyl-1,2,3,5,6,8a-hexahydroindolizin-7-yl]-3-(pyridin-4-yl)-1H-pyrrole] | 92 |
| Cc1ccc([C@@H]2C[C@H]3C=C(c4c[nH]c(-c5ccc(F)c(F)c5)c4-c4ccncc4)CCN3C2)cc1C [Example 41, 2-(3,4-Difluorophenyl)-4-[(2S,8aS)-2-(3,4-dimethylphenyl)-1,2,3,5,6,8a-hexahydroindolizin-7-yl]-3-(pyridin-4-yl)-1H-pyrrole] | 91 |
| Clc1cccc(-c2[nH]cc(C3=C[C@@H]4C[C@@H](c5ccccc5)CN4CC3)c2-c2ccncc2)c1 [Example 10, 2-(3-Chlorophenyl)-4-[(2S,8aS)-2-phenyl-1,2,3,5,6,8a-hexahydroindolizin-7-yl]-3-(pyridin-4-yl)-1H-pyrrole] | 91 |
| CCOc1ccc([C@@H]2C[C@H]3C=C(c4c[nH]c(-c5ccc(F)cc5)c4-c4ccncc4)CCN3C2)cc1 [Example 30, 4-[(2S,8aS)-2-(4-Ethoxyphenyl)-1,2,3,5,6,8a-hexahydroindolizin-7-yl]-2-(4-fluorophenyl)-3-(pyridin-4-yl)-1H-pyrrole] | 90 |
| Fc1ccc(-c2[nH]cc(C3=C[C@@H]4C[C@@H](c5ccccc5)CN4CC3)c2-c2ccncc2)cc1Cl [Example 46, 2-(3-Chloro-4-fluorophenyl)-4-[(2S,8aS)-2-phenyl-1,2,3,5,6,8a-hexahydroindolizin-7-yl]-3-(pyridin-4-yl)-1H-pyrrole] | 93 |

These compounds were tested on adjuvant-induced arthritis (assay: Activity in preventing the development of adjuvant-induced arthritis in vivo). Settings: dose: 10 mg/kg, oral once a day from day 0 to day 20; measured on day 21; Lewis rat.
Procedure: Activity in Preventing the Development of Adjuvant-Induced Arthritis In Vivo The test was performed according to the method described by Winder et al. (Arthritis Rheum., 12, 472-482, 1969). Heat-killed dried Mycobacterium butyricum (Difco Laboratories, Lot 679123) was ground on an agate mortar, and was then suspended in dry-sterilised liquid paraffin (first grade, Wako Pure Chemical Industries, Ltd.) to make a 2 mg/ml suspension. The resulting suspension was then sonicated and used as an adjuvant. Arthritis was induced by the intradermal injection of the adjuvant (100 μg of heat killed dried bacterium/0.05 ml of paraffin/paw) into the heel of the right hind paw of a Lewis rat (male, age 9 weeks, 190 g, Japan Charles River). The rats were assigned to groups of 5 animals each. […] The volumes of the right hind paw (adjuvant-injected paw) and left hind paw (non-injected paw) were measured on days 3, 5, 7, 10, 13, 15, 18 and 21 using a Plethysmometer™ (Ugo Basile), the hind paws being soaked from the toe to the hairline in the bath of the Plethysmometer™. The volumes of the swollen feet (adjuvant-injected right hind foot volume—non-injected left hind foot volume) were calculated. The percent inhibition of swelling of the injected foot of the treated animals as compared to that of the control animals on day 21 was calculated as follows. [formula]

| Structure (SMILES) | Inhibition rate (%) of swelling of adjuvant-injected foot [%] |
| --- | --- |
| Fc1ccc(-c2[nH]cc(C3=C[C@@H]4C[C@@H](c5ccccc5)CN4CC3)c2-c2ccncc2)cc1 [Example 2, 2-(4-Fluorophenyl)-4-[(2S,8aS)-2-phenyl-1,2,3,5,6,8a-hexahydroindolizin-7-yl]-3-(pyridin-4-yl)-1H-pyrrole] | 84 |
| Fc1ccc(-c2[nH]nc(C3=C[C@@H]4C[C@@H](c5ccccc5)CN4CC3)c2-c2ccncc2)cc1 [Example 7, 5-(4-Fluorophenyl)-3-[(2S,8aS)-2-phenyl-1,2,3,5,6,8a-hexahydroindolizin-7-yl]-4-(pyridin-4-yl)pyrazole] | 81 |
